In patent US20100137344A1, “INDUCTION OF ANALGESIA IN NEUROPATHIC PAIN” (University Court of the University of Edinburgh, priority 2006, published 2010):

Tests used:
[1] = system: SNL model of neuropathic pain; assay: SNL spinal nerve ligation model, Hargreaves' test, topical icilin; format: in vivo; settings: icilin 200 μM topical
Procedure: The SNL model of neuropathic pain was set up according to Kim and Chung 1992 (Pain 50: 355-363). The Hargreaves' test for thermal hyperalgesia was carried out as described above and icilin (200 μM) was applied topically to the ipsilateral (⋄) and contralateral (▪) paw. Values are shown as means±SEM. † Indicates statistically significant reversal of sensitisation ipsilateral to nerve injury (see FIG. 1). No significant drug effects were seen on reflex withdrawal responses of the contralateral limb.

[2] = system: rats sensitised by the TRPA1 activator cinnamaldehyde; assay: Cinnamaldehyde-induced sensitisation and its reversal by icilin (PWL, PWT); format: in vivo, rat; settings: for Mean % reversal of mechanical sensitisation (after 15-30 mins) / Mean % reversal of thermal sensitisation (after 15-30 mins) / PWL (s) difference from control (+ icilin) / PWT (mN/mm^2) difference from control (+ icilin): icilin 10 nmol, i.t.
Procedure: (§1) Thermal sensitivity was assessed by measuring paw withdrawal latency (PWL, s) in response to a noxious thermal stimulus (Hargreaves' thermal stimulator, Linton Instrumentation, Diss, UK) directed to the hindpaw mid-plantar glabrous surface. Mechanical sensitivity was recorded as the paw withdrawal threshold (PWT, mN/mm^2) to calibrated von Frey filaments (Stoelting, Ill., US), as previously described^[39]. Sensitivity to noxious cold was assessed by placing animals in a waterbath with an aluminium floor containing 1 cm deep 4° C. water and counting the time the paw was held suspended over a 20 s period.
(§2) The following drugs were applied intrathecally in a 50 μl volume of saline-based vehicle at 37° C.: icilin (2.5-200 μM in saline with 0.2% dimethylformamide, DMF), LY 341495 (100 μM in saline), UBP 1112 (200 μM in saline), 2R,4R-APDC ((2R, 4R)-4-aminopyrrolidine-2,4-dicarboxylate), 300 μM in saline), ACPT-III ((1R,3R,4S)-1-aminocyclopentane-1,3,4-tricarboxylic acid), 3 mM in saline), AP-4, ((L-(1)-2-amino-4-phosphonobutyric acid), 3 mM in saline), naloxone (0.5 mM in saline), NMDA (75 μM in saline) and ACPC (1-aminocyclopropanecarboxylic acid, 15 μM in saline) (Tocris Cookson, Bristol, UK), (−)-menthol (1R,2S,5R-(−)-menthol, 4 mM in saline), cinnamaldehyde (1.5 mM in saline) and Ruthenium Red (5 μM in saline) (Sigma-Aldrich Co. Ltd, UK) and allicin (0.5 mM in saline with 0.5% DMF) and diallyl disulphide (DADS, 1 mM in saline with 0.5% DMF) (LKT Laboratories Inc., St Paul, Minn., USA). Drugs were injected into the L5/6 intrathecal space under brief halothane anaesthesia, using a 25-gauge needle microsyringe (BD Biosciences, Oxford, UK), as described previously^[39] in animals that were at peak levels of behavioural sensitisation. Behavioural reflex testing commenced 15 min following injection to allow recovery from anaesthesia^[40,41,42] and continued every 5 min thereafter until readings returned to baseline levels (n=6 in each case). We, and others^[40,41,42] find complete recovery from anaesthetic by 15 minutes. All appropriate controls were carried out to eliminate the possibility of effects due to vehicle or to injection procedure.
The TRPM8 channel activators, icilin and (−)-menthol were tested in CCI and naïve animals. The effects of icilin were additionally assessed in animals with CFA-induced inflammation or with lysolecithin-induced demyelination. Icilin was also co-administered with the μ-opioid receptor antagonist naloxone, the Group II metabotropic glutamate receptor (mGluR) antagonist, LY 341495, or the Group III mGluR antagonist, UBP 1112. The effects of these antagonists alone as well as effects of the Group II mGluR agonist, 2R,4R-APDC and the Group III mGluR agonists, ACPT-III and AP-4, were assessed in CCI animals. The TRPA1 channel activator, cinnamaldehyde, alone and with icilin, was tested in CCI animals and in naïve animals. Further TRPA1 channel activators, allicin and diallyl disulphide were assessed in naïve animals. Both icilin and cinnamaldehyde effects in CCI animals were also investigated in the additional presence of Ruthenium Red.
Icilin was applied at concentrations of 2.5-500 μM (in water with 0.2% DMF), by placing CCI or naïve rats unrestrained for 5 min in a 1 cm deep waterbath (sufficient to cover paws), which was thermostatically controlled to a temperature of 30° C., or by very lightly anaesthetising rats and immersing hindpaws in small tubes containing 5 ml icilin (500 μM-5 mM, with a vehicle of 45% dimethylformamide in 0.2% aqueous Tween 80) for 5 min, followed by sensory testing for 60-80 mins. The effects of (−)-menthol and its stereoisomers isomenthol (1S,2R,5R-menthol,) and (+)-menthol (1S,2R,5S(+)-menthol) (4-16 mM in 80% ethanol) were also assessed. Relevant vehicles were always assessed in similar experiments. As a contrast, the effect of cinnamaldehyde (1.5 mM in water) and the effect of cinnamaldehyde with additional icilin (80 μM in water with 0.2% DMF) were assessed in naïve animals. […]

[3] = system: rats with Complete Freund's Adjuvant (CFA)-induced inflammation; assay: Intrathecal icilin in CFA inflammatory pain model (PWL, PWT); format: in vivo, rat; settings: icilin 10 nmol, i.t.
Procedure: (§3) Pain models were generated under halothane anaesthesia (Zeneca, Cheshire, UK). For the chronic constriction injury (CCI) model of neuropathic pain, four ligatures were tied loosely to constrict the sciatic nerve at mid-thigh level (as described previously^[39]). An inflammatory pain model was generated by injecting 100 μl of Complete Freund's Adjuvant (CFA, Sigma-Aldrich Ltd) into the ventral surface of the right hindpaw^[39]. A model of peripheral demyelination-induced pain was produced by focal application of lysolecithin to the sciatic nerve^[40]. Peak behavioural sensitisation was observed post-surgically between days 10-16 for CCI, 1-3 for CFA, and 7-14 for lysolecithin, when pharmacological and electrophysiological experiments and tissue removal were conducted.
as §1
as §2, with “Drugs were injected into the L5/6 intrathecal space under brief halothane anaesthesia, using a 25-gauge needle microsyringe (BD Biosciences, Oxford, UK), as described previously^[39] in animals that were at peak levels of behavioural sensitisation.” left out, “We, and others^[40,41,42] find complete recovery from anaesthetic by 15 minutes. All appropriate controls were carried out to eliminate the possibility of effects due to vehicle or to injection procedure.” left out
(§4) The TRPM8 channel activators, icilin and (−)-menthol were tested in CCI and naïve animals. The effects of icilin were additionally assessed in animals with CFA-induced inflammation or with lysolecithin-induced demyelination. […]

[4] = system: model of cancer-induced bone pain; assay: Cancer-induced bone pain model (von Frey, rotarod paw lifts); format: in vivo; settings: topical icilin
From the text: The model of cancer-induced bone pain was set up according to Medhurst et al., 2002 Pain 96: 129-40.

[5] = system: rats with lysolecithin-induced demyelination of sciatic nerve; assay: Intrathecal icilin in lysolecithin demyelination-induced pain model (PWL, PWT); format: in vivo, rat; settings: icilin 10 nmol, i.t.
Procedure: as §3, §1
as §2, with “Drugs were injected into the L5/6 intrathecal space under brief halothane anaesthesia, using a 25-gauge needle microsyringe (BD Biosciences, Oxford, UK), as described previously^[39] in animals that were at peak levels of behavioural sensitisation.” left out, “We, and others^[40,41,42] find complete recovery from anaesthetic by 15 minutes. All appropriate controls were carried out to eliminate the possibility of effects due to vehicle or to injection procedure.” left out
as §4

## O=C1NC(c2cccc([N+](=O)[O-])c2)=CCN1c1ccccc1O [icilin, 1-(2′-hydroxyphenyl)-4-(3″-nitrophenyl)-1,2,3,6-tetrahydropyrimidin-2-one]
[1]
  analgesia, thermal hyperalgesia (Hargreaves' test): causes analgesia
[2]; Cinnamaldehyde (intrathecal)
  Mean % reversal of mechanical sensitisation (after 15-30 mins): 92.6 ± 2.8%
  Mean % reversal of thermal sensitisation (after 15-30 mins): 91.5 ± 4.1%
  PWL (s) difference from control (+ icilin): 0.5 ± 1.8 s
  PWT (mN/mm^2) difference from control (+ icilin): 150.3 ± 125.2 mN/mm^2
[2]; Cinnamaldehyde (topical)
  Mean % reversal of mechanical sensitisation (after 15-30 mins): 100.0 ± 0.0%
  Mean % reversal of thermal sensitisation (after 15-30 mins): 92.0 ± 6.1%
  PWL (s) difference from control (+ icilin): 0.4 ± 1.6 s
  PWT (mN/mm^2) difference from control (+ icilin): 0.0 ± 0.0 mN/mm^2
[2]; topical icilin 200 μM, data not shown
  effect on sensitisation by topical cinnamaldehyde: reversed
[3]
  Mean % reversal of mechanical sensitisation (after 15-30 mins): 42.6 ± 2.8%
  Mean % reversal of thermal sensitisation (after 15-30 mins): 66.0 ± 7.5%
  PWL (s) difference from control (+ icilin): 1.6 ± 1.6 s
  PWT (mN/mm^2) difference from control (+ icilin): 1707.6 ± 149.9 mN/mm^2
[4]
  analgesia in cancer-induced bone pain (mechanical allodynia, movement-evoked pain): causes analgesia
[5]
  Mean % reversal of mechanical sensitisation (after 15-30 mins): 63.3 ± 6.4%
  Mean % reversal of thermal sensitisation (after 15-30 mins): 69.2 ± 5.1%
  PWL (s) difference from control (+ icilin): 2.4 ± 1.2 s
  PWT (mN/mm^2) difference from control (+ icilin): 1102.5 ± 422.5 mN/mm^2
